{"source": "paper PMC4508327", "about": "(Clinical cancer research : an official journal of the …, 2015)", "key": {"[1]": {"conditions": "in vivo"}, "[2]": {"tested_on": "patients with advanced solid tumors", "conditions": "human, in vivo"}, "[3]": {"tested_on": "advanced solid tumors", "test": "Objective tumor response", "assay_type": "in vivo, human"}, "[4]": {"tested_on": "patients with advanced solid tumors", "test": "Phase I safety: adverse events"}, "[5]": {"conditions": "preclinical; no reference given; cited from earlier work"}, "[6]": {"test": "QTc interval", "assay_type": "in vivo, human"}}, "data": [{"smiles": "CN(C)C1CCN(C(=O)c2ccc(NC(=O)Nc3ccc(-c4nc(N5CCOCC5)nc(N5CCOCC5)n4)cc3)cc2)CC1", "note": "[PF-05212384]", "values": [{"measurement": "accumulation (accumulation ratios for Cmax)", "setting": "[1]; human", "result": "no accumulation"}, {"measurement": "interpatient variability in Cmax and AUC", "setting": "[1]; human", "result": "low to moderate"}, {"measurement": "terminal T1/2, mean values", "setting": "[1]; human", "result": "33 to 41", "unit": "h"}, {"measurement": "Cmax and AUC versus dose", "setting": "[1]", "result": "appeared to increase proportionally with increasing dose"}, {"measurement": "all-cause AE: anemia", "setting": "[2]", "result": 18.2, "unit": "%"}, {"measurement": "all-cause AE: asthenia", "setting": "[2]", "result": 26, "unit": "%"}, {"measurement": "all-cause AE: back pain", "setting": "[2]", "result": 19.5, "unit": "%"}, {"measurement": "all-cause AE: constipation", "setting": "[2]", "result": 23.4, "unit": "%"}, {"measurement": "all-cause AE: cough", "setting": "[2]", "result": 23.4, "unit": "%"}, {"measurement": "all-cause AE: decreased appetite", "setting": "[2]", "result": 37.7, "unit": "%"}, {"measurement": "all-cause AE: diarrhea", "setting": "[2]", "result": 24.7, "unit": "%"}, {"measurement": "all-cause AE: dyspnea", "setting": "[2]", "result": 19.5, "unit": "%"}, {"measurement": "all-cause AE: fatigue", "setting": "[2]", "result": 32.5, "unit": "%"}, {"measurement": "all-cause AE: hyperglycemia", "setting": "[2]", "result": 28.6, "unit": "%"}, {"measurement": "all-cause AE: increased ALT and AST", "setting": "[2]", "result": 16.9, "unit": "%"}, {"measurement": "all-cause AE: mucosal inflammation and stomatitis", "setting": "[2]", "result": 59.7, "unit": "%"}, {"measurement": "all-cause AE: nausea", "setting": "[2]", "result": 55.8, "unit": "%"}, {"measurement": "all-cause AE: pyrexia", "setting": "[2]", "result": 23.4, "unit": "%"}, {"measurement": "all-cause AE: rash", "setting": "[2]", "result": 23.4, "unit": "%"}, {"measurement": "all-cause AE: vomiting", "setting": "[2]", "result": 35.1, "unit": "%"}, {"measurement": "patients who discontinued due to treatment-related AEs", "setting": "[2]", "result": 3.9, "unit": "%"}, {"measurement": "treatment-related AE: decreased appetite", "setting": "[2]", "result": 24.7, "unit": "%"}, {"measurement": "treatment-related AE: fatigue", "setting": "[2]", "result": 24.7, "unit": "%"}, {"measurement": "treatment-related AE: hyperglycemia", "setting": "[2]", "result": 26, "unit": "%"}, {"measurement": "treatment-related AE: mucosal inflammation and stomatitis", "setting": "[2]", "result": 58.4, "unit": "%"}, {"measurement": "treatment-related AE: nausea", "setting": "[2]", "result": 42.9, "unit": "%"}, {"measurement": "treatment-related AE: vomiting", "setting": "[2]", "result": 24.7, "unit": "%"}, {"measurement": "recommended phase 2 dose", "setting": "[2]; iv", "result": 154, "unit": "mg"}, {"measurement": "patients with long-lasting stable disease (>6 months)", "setting": "[3]; 77 treated patients", "result": "Eight"}, {"measurement": "clinical benefit response (CBR)", "setting": "[3]; CR, PR or SD lasting ≥6 months, overall", "result": 13, "unit": "%"}, {"measurement": "objective tumor response rate", "setting": "[3]; overall study population, n = 77", "result": 2.6, "unit": "%"}, {"measurement": "partial responses (PR)", "setting": "[3]; overall study population, plus one unconfirmed PR", "result": "two"}, {"measurement": "maximum tolerated dose (MTD)", "setting": "[4]; IV once weekly, estimated by modified CRM", "result": 154, "unit": "mg"}, {"measurement": "deaths on study and within 28 days of last-dose administration", "setting": "[4]; seven disease progression, one colon obstruction, one pneumonia", "result": "Nine"}, {"measurement": "effect on cardiac, central nervous system or respiratory function", "setting": "[5]", "result": "did not show any significant effect"}, {"measurement": "association with QTc prolongation", "setting": "[6]; based on the lack of a dose-effect relationship", "result": "likely not associated with QTc prolongation"}, {"measurement": "patients with grade 1 QTc prolongation", "setting": "[6]; human, in vivo", "result": 5, "unit": "%"}, {"measurement": "patients with grade 2 QTc prolongation", "setting": "[6]; human, in vivo", "result": 5, "unit": "%"}, {"measurement": "patients with grade 3 QTc prolongation", "setting": "[6]; in vivo", "result": "no patients"}]}]}
